Laboratory results reported in publication PMC11792023, “PNPO‐Mediated Oxidation of DVL3 Promotes Multiple Myeloma Malignancy and Osteoclastogenesis by Activating the Wnt/β‐Catenin Pathway” (Advanced Science, 2024).

Tests used:
[1] = target: T1, PNPO (pyridoxine-5'-phosphate oxidase) (Homo sapiens, UniProt Q9NVS9); test: microscale thermophoresis (MST); also HuProt […] proteome microarray with FITC-labelled celastrol; assay type: binding
T1 construct: PNPO WT, 6×His tag (pet-28a)
T1 sequence (Q9NVS9 1-261): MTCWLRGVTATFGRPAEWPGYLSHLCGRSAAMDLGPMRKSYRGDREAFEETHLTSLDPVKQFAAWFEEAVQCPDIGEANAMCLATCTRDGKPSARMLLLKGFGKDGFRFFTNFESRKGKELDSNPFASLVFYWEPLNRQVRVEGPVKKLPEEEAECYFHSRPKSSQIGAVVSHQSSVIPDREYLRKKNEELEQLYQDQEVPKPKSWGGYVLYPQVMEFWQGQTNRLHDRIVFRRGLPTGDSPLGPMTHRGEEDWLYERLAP

[2] = target: T1, PNPO (pyridoxine-5'-phosphate oxidase); test: microscale thermophoresis (MST) with RED-NHS-labelled purified protein; assay type: binding

SMILES	microscale thermophoresis (MST); also HuProt 20K proteome microarray with FITC-l [1]	Kd [2] [nM]
CC1=C(O)C(=O)C=C2C1=CC=C1[C@@]2(C)CC[C@@]2(C)[C@@H]3C[C@](C)(C(=O)O)CC[C@]3(C)CC[C@]12C [celastrol]	MST analysis confirmed a direct interaction between celastrol and PNPO	
CC1=NN(c2ccc(C)c(C)c2)C(=O)/C1=N\Nc1cccc(-c2cccc(C(=O)O)c2)c1O [Eltrombopag]		180 ± 90
